Patent publication US20090191193A1, “Aryl Vinyl Sulfides, Sulfones, Sulfoxides and Sulfonamides, Derivatives Thereof and Therapeutic Uses Thereof” (TEMPLE UNIVERSITY-OF THE COMMONWEALTH SYSTEM OF HIGHER …, priority 2006, published 2009)

How the values were obtained:
[1] = test system: K562 (chronic myelogenous leukaemia); test: Effect on tumor cell lines, viable cell count by trypan blue exclusion (Latham et al.): K562; assay type: cell-based; conditions: Homo sapiens, K562, 96 h, K562 chronic myelogenous leukaemia cells, viable cell count 96 hours after treatment
DU145 (prostate cancer) = test: Effect on tumor cell lines, viable cell count by trypan blue exclusion (Latham et al.): DU145; assay type: cell-based; conditions: Homo sapiens, DU-145, 96 h, DU145 prostate cancer cells, viable cell count 96 hours after treatment

SMILES	IC50 [1]	melting point	IC50 (DU145 (prostate cancer))
N#C/C(=C\c1c[nH]c2ccccc12)S(=O)(=O)Nc1ccc(Br)cc1 [Example 214]	25 to 50 µM	208 to 210 °C	50 to 100 µM
COc1cc(OC)c(/C=C(\C#N)S(=O)(=O)Nc2ccc(Br)cc2)c(OC)c1 [Example 215]	10 to 25 µM	197 to 199 °C	25 to 50 µM
CN(C)c1ccc(/C=C(\C#N)S(=O)(=O)Nc2ccc(Br)cc2)cc1 [Example 216]	25 to 50 µM	190 to 192 °C	50 to 100 µM
N#C/C(=C\c1ccc(Br)cc1)S(=O)(=O)Nc1ccc(Br)cc1 [Example 217]	25 to 50 µM	174 to 176 °C	50 to 100 µM
COc1ccc(/C=C(\C#N)S(=O)(=O)Nc2ccc(Br)cc2)c(OC)c1OC [Example 218]	50 to 100 µM	146 to 148 °C	> 100 µM
CCOc1ccc(/C=C(\C#N)S(=O)(=O)Nc2ccc(Br)cc2)cc1OC [Example 219]	50 to 100 µM	188 to 190 °C	50 to 100 µM
N#C/C(=C\c1c(F)c(F)c(F)c(F)c1F)S(=O)(=O)Nc1ccc(Br)cc1 [Example 221]	< 1 µM	174 to 176 °C	1 to 10 µM
N#C/C(=C\c1c[nH]c2ccc(Br)cc12)S(=O)(=O)Nc1ccc(Br)cc1 [Example 222]	25 to 50 µM	242 to 253 °C	25 to 50 µM
N#C/C(=C\c1ccc(O)c([N+](=O)[O-])c1)S(=O)(=O)Nc1ccc(Br)cc1 [Example 223]	> 100 µM	> 250 °C	> 100 µM
Cc1ccsc1/C=C(\C#N)S(=O)(=O)Nc1ccc(Br)cc1 [Example 224]	50 to 100 µM	176 to 179 °C	50 to 100 µM
COc1ccccc1/C=C(\C#N)S(=O)(=O)Nc1ccc(Br)cc1 [Example 225]	50 to 100 µM	187 to 189 °C	50 to 100 µM
N#C/C(=C\c1ccc(F)cc1F)S(=O)(=O)Nc1ccc(Br)cc1 [Example 226]	25 to 50 µM	165 to 166 °C	25 to 50 µM
N#C/C(=C\c1ccccc1Cl)S(=O)(=O)Nc1ccc(Br)cc1 [Example 227]	25 to 50 µM	192 to 194 °C	50 to 100 µM
N#C/C(=C\c1ccccc1O)S(=O)(=O)Nc1ccc(Br)cc1 [Example 228]	25 to 50 µM	169 to 170 °C	25 to 50 µM
Cc1ccc(C)c(/C=C(\C#N)S(=O)(=O)Nc2ccc(Br)cc2)c1 [Example 229]	25 to 50 µM	172 to 174 °C	50 to 100 µM
N#C/C(=C\c1ccccc1OCc1ccccc1)S(=O)(=O)Nc1ccc(F)cc1 [Example 230]	10 to 25 µM	127 to 129 °C	25 to 50 µM
N#C/C(=C\c1c[nH]c2ccccc12)S(=O)(=O)Nc1ccc(F)cc1 [Example 231]	25 to 50 µM	202 to 204 °C	50 to 100 µM
COc1cc(OC)c(/C=C(\C#N)S(=O)(=O)Nc2ccc(F)cc2)c(OC)c1 [Example 232]	25 to 50 µM	169 to 171 °C	50 to 100 µM
CN(C)c1ccc(/C=C(\C#N)S(=O)(=O)Nc2ccc(F)cc2)cc1 [Example 233]	50 to 100 µM	179 to 180 °C	> 100 µM
N#C/C(=C\c1c(F)c(F)c(F)c(F)c1F)S(=O)(=O)Nc1ccc(F)cc1 [Example 234]	< 1 µM	150 to 152 °C	1 to 10 µM
N#C/C(=C\c1ccccc1Cl)S(=O)(=O)Nc1ccc(F)cc1 [Example 235]	10 to 25 µM	182 to 184 °C	25 to 50 µM
Cc1ccsc1/C=C(\C#N)S(=O)(=O)Nc1ccc(F)cc1 [Example 236]	50 to 100 µM	179 to 181 °C	> 100 µM
COc1cc(OC)c(OC)cc1/C=C(\C#N)S(=O)(=O)Nc1ccc(F)cc1 [Example 237]	> 100 µM	184 to 186 °C	> 100 µM
Cc1ccc(C)c(/C=C(\C#N)S(=O)(=O)Nc2ccc(F)cc2)c1 [Example 238]	50 to 100 µM	161 to 164 °C	> 100 µM
N#C/C(=C\c1ccc(F)cc1F)S(=O)(=O)Nc1ccc(F)cc1 [Example 240]	50 to 100 µM	135 to 139 °C	50 to 100 µM
COc1ccc(/C=C(\C#N)S(=O)(=O)Nc2ccc(F)cc2)c(F)c1 [Example 241]	50 to 100 µM	142 to 144 °C	> 100 µM
N#C/C(=C\c1ccc(Br)cc1)S(=O)(=O)Nc1ccc(F)cc1 [Example 242]	50 to 100 µM	130 to 132 °C	50 to 100 µM
N#C/C(=C\c1cc(Cl)cc(Cl)c1Cl)S(=O)(=O)Nc1ccc(F)cc1 [Example 243]	10 to 25 µM	184 to 186 °C	10 to 25 µM
Cc1ccc(/C=C(\C#N)S(=O)(=O)Nc2ccc(F)cc2)cc1C [Example 244]	> 100 µM	141 to 142 °C	> 100 µM
N#C/C(=C\c1ccc(F)c(Cl)c1)S(=O)(=O)Nc1ccc(F)cc1 [Example 245]	50 to 100 µM	118 to 120 °C	50 to 100 µM

Next, values leading:

IC50 [1]	melting point	IC50 (DU145 (prostate cancer))	SMILES
> 100 µM	133 to 134 °C	> 100 µM	Cc1ccc(/C=C(\C#N)S(=O)(=O)Nc2ccc(F)cc2)s1 [Example 246]
> 100 µM	152 to 154 °C	> 100 µM	COc1ccccc1/C=C(\C#N)S(=O)(=O)Nc1ccc(F)cc1 [Example 247]
50 to 100 µM	108 to 110 °C	> 100 µM	N#C/C(=C\c1ccc(Cl)cc1)S(=O)(=O)Nc1ccc(F)cc1 [Example 248]
> 100 µM	179 to 182 °C	> 100 µM	COc1cc(/C=C(\C#N)S(=O)(=O)Nc2ccc(F)cc2)cc(OC)c1OC [Example 249]
50 to 100 µM	167 to 169 °C	> 100 µM	N#C/C(=C\c1c[nH]c2ccc(Br)cc12)S(=O)(=O)Nc1ccc(F)cc1 [Example 250]
> 100 µM	150 to 152 °C	> 100 µM	CCOc1ccc(/C=C(\C#N)S(=O)(=O)Nc2ccc(F)cc2)cc1OC [Example 251]
10 to 25 µM	177 to 179 °C	25 to 50 µM	Cc1ccc(NS(=O)(=O)/C(C#N)=C/c2ccccc2OCc2ccccc2)c(C)c1 [Example 252]
25 to 50 µM	192 to 194 °C	50 to 100 µM	Cc1ccc(NS(=O)(=O)/C(C#N)=C/c2c[nH]c3ccccc23)c(C)c1 [Example 253]
50 to 100 µM	132 to 134 °C	50 to 100 µM	COc1cc(OC)c(/C=C(\C#N)S(=O)(=O)Nc2ccc(C)cc2C)c(OC)c1 [Example 254]
25 to 50 µM	168 to 171 °C	25 to 50 µM	Cc1ccc(NS(=O)(=O)/C(C#N)=C/c2ccc(N(C)C)cc2)c(C)c1 [Example 255]
1 to 10 µM	116 to 119 °C	25 to 50 µM	Cc1ccc(NS(=O)(=O)/C(C#N)=C/c2ccccc2Cl)c(C)c1 [Example 256]
10 to 25 µM	166 to 168 °C	50 to 100 µM	Cc1ccc(NS(=O)(=O)/C(C#N)=C/c2sccc2C)c(C)c1 [Example 257]
50 to 100 µM	161 to 163 °C	> 100 µM	COc1cc(OC)c(OC)cc1/C=C(\C#N)S(=O)(=O)Nc1ccc(C)cc1C [Example 258]
50 to 100 µM	139 to 141 °C	> 100 µM	Cc1ccc(NS(=O)(=O)/C(C#N)=C/c2cc(C)ccc2C)c(C)c1 [Example 259]
50 to 100 µM	142 to 144 °C	> 100 µM	COc1ccc(/C=C(\C#N)S(=O)(=O)Nc2ccc(C)cc2C)c(F)c1 [Example 261]
10 to 25 µM	164 to 166 °C	25 to 50 µM	Cc1ccc(NS(=O)(=O)/C(C#N)=C/c2ccc(Br)cc2)c(C)c1 [Example 262]
< 1 µM	171 to 173 °C	< 1 µM	Cc1ccc(NS(=O)(=O)/C(C#N)=C/c2cc(Cl)cc(Cl)c2Cl)c(C)c1 [Example 263]
> 100 µM	166 to 169 °C	> 100 µM	Cc1ccc(NS(=O)(=O)/C(C#N)=C/c2ccc(C)c(C)c2)c(C)c1 [Example 264]
25 to 50 µM	158 to 160 °C	50 to 100 µM	Cc1ccc(NS(=O)(=O)/C(C#N)=C/c2ccc(C)s2)c(C)c1 [Example 265]
50 to 100 µM	136 to 139 °C	> 100 µM	COc1ccccc1/C=C(\C#N)S(=O)(=O)Nc1ccc(C)cc1C [Example 266, (E)-2-[(2,4-dimethylphenyl)sulfamoyl]-3-(2-methoxyphenyl)acrylonitrile]
50 to 100 µM	158 to 161 °C	50 to 100 µM	Cc1ccc(NS(=O)(=O)/C(C#N)=C/c2ccc(Cl)cc2)c(C)c1 [Example 267]
50 to 100 µM	178 to 180 °C	> 100 µM	COc1cc(/C=C(\C#N)S(=O)(=O)Nc2ccc(C)cc2C)cc(OC)c1OC [Example 268]
1 to 10 µM	231 to 235 °C	1 to 10 µM	Cc1ccc(NS(=O)(=O)/C(C#N)=C/c2c[nH]c3ccc(Br)cc23)c(C)c1 [Example 269]
> 100 µM	127 to 129 °C	> 100 µM	COc1ccc(/C=C(\C#N)S(=O)(=O)Nc2ccc(C)cc2C)cc1 [Example 270]
> 100 µM	152 to 154 °C	> 100 µM	Cc1ccc(NS(=O)(=O)/C(C#N)=C/c2ccc(O)cc2)c(C)c1 [Example 271]
